In US9233979B2, “Compounds that are ERK inhibitors” (Merck Sharp & Dohme Corp., priority 2012, dated 2016):

Molecular target: phosphorylated active hERK2 enzyme (Homo sapiens (Human), UniProt P28482)
Test: Active Human ERK2 (hERK2) Activity Assay (IMAP-FP)
Type: biochemical
Settings: Table 6, 0.5 nM hERK2, 30 μM ATP, 10 point titration, read-out: AERK2 IC50
Method: Assays Active Human ERK2 (hERK2) Activity Assay:
Activated ERK2 activity was determined in an IMAP-FP assay (Molecular Devices). […] The final reaction in each well of 25 μL consists of 0.5 nM hERK2, 900 nM unlabeled peptide, 80 nM labeled-peptide, and 30 μM ATP. Phosphorylation reactions were allowed to proceed for 60 minutes and were immediately quenched by the addition of 60 μL IMAP detection beads (1:1000 dilutions) in IMAP binding buffer (Molecular Devices) with 24 mM NaCl. Plates were read on EnVision reader after 60 minutes binding equilibration using Fluorescence Polarization protocol (Perkin Elmer).

phosphorylated active hERK2 enzyme, sequence (P28482 whole entry): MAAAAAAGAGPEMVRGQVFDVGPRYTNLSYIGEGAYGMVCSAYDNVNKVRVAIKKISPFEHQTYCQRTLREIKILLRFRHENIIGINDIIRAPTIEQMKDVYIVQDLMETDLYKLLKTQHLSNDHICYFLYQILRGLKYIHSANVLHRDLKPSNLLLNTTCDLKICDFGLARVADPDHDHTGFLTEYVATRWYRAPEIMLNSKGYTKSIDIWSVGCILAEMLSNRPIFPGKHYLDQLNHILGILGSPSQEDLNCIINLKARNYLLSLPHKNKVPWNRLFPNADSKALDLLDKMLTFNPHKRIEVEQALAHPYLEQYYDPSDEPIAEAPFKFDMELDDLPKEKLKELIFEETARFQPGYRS

An IC50 of 0.6 nM was found for `CCNc1n[nH]c2cc(NC(=O)N[C@H](C)c3ccccc3)nc(CO)c12` [Example 70, 1-[3-(ethylamino)-4-(hydroxymethyl)-1H-pyrazolo[4,3-c]-pyridin-6-yl]-3-[(1R)-1-phenylethyl]urea] in this work.

An IC50 of 4.4 nM was found for `CCNc1n[nH]c2cc(NC(=O)N[C@H](C)c3ccccc3)nc(COC)c12` [Example 71, (R)-1-(3-(ethylamino)-4-(methoxymethyl)-1H-pyrazolo[4,3-c]pyridin-6-yl)-3-(1-phenylethyl)urea] in this work.

An IC50 of 106 nM was found for `COCc1nc(NC(=O)N[C@H](C)c2ccccc2)cc2[nH]nc(NC(C)=O)c12` [Example 72, (R)—N-(4-(methoxymethyl)-6-(3-(1-phenylethyl)ureido)-1H-pyrazolo[4,3-c]pyridin-3-yl)acetamide] in this work.

An IC50 of 39.2 nM was found for `C[C@@H](NC(=O)Nc1cc2[nH]nc(NC3=CC(=O)CC3)c2cn1)c1ccccc1` [Example 73, (R)-1-(3-((3-oxocyclopent-1-en-1-yl)amino)-1H-pyrazolo[4,3-c]pyridin-6-yl)-3-(1-phenylethyl)urea] in this work.

An IC50 of 1.7 nM was found for `C[C@@H](NC(=O)Nc1cc2[nH]nc(N[C@@H]3CCOC3)c2cn1)c1ccccc1` [Example 74, 1-[(1R)-1-phenylethyl]-3-{3-[(3R)-tetrahydro-furan-3-ylamino]-1H-pyrazolo[4,3-c]-pyridin-6-yl}urea] in this work.

An IC50 of 0.8 nM was found for `COC[C@@H](NC(=O)Nc1cc2[nH]nc(N[C@@H]3CCOC3)c2cn1)c1ccccc1` [Example 75, 1-[(1S)-2-methoxy-1-phenylethyl]-3-{3-[(3R)-tetrahydro-furan-3-ylamino]-1H-pyrazolo[4,3-c]-pyridin-6-yl}urea] in this work.

An IC50 of 1.3 nM was found for `COC[C@@H](NC(=O)Nc1cc2[nH]nc(N[C@H]3CCOC3)c2cn1)c1ccccc1` [Example 76, 1-[(1S)-2-methoxy-1-phenylethyl]-3-{3-[(3S)-tetrahydro-furan-3-ylamino]-1H-pyrazolo[4,3-c]-pyridin-6-yl}urea] in this work.

An IC50 of 2.1 nM was found for `C[C@@H](NC(=O)Nc1cc2[nH]nc(N[C@H]3CCOC3)c2cn1)c1ccccc1` [Example 77, 1-[(1R)-1-phenylethyl]-3-{3-[(3S)-tetrahydro-furan-3-ylamino]-1H-pyrazolo[4,3-c]-pyridin-6-yl}urea] in this work.

An IC50 of 7.4 nM was found for `CC1CC(Nc2n[nH]c3cc(NC(=O)N[C@H](C)c4ccccc4)ncc23)C(C)O1` (stereo partly drawn) [Example 78, 1-(3-((2,5-dimethyltetrahydro-furan-3-yl)amino)-1H-pyrazolo[4,3-c]-pyridin-6-yl)-3-((R)-1-phenylethyl)urea] in this work.

An IC50 of 9.7 nM was found for `C[C@@H](NC(=O)Nc1cc2[nH]nc(N3CC(O)C3)c2cn1)c1ccccc1` [Example 79, 1-[3-(3-hydroxy-azetidin-1-yl)-1H-pyrazolo[4,3-c]-pyridin-6-yl]-3-[(1R)-1-phenylethyl]urea] in this work.

An IC50 of 5.5 nM was found for `COC[C@@H](NC(=O)Nc1cc2[nH]nc(N3CC(O)C3)c2cn1)c1ccccc1` [Example 80, 1-[3-(3-hydroxy-azetidin-1-yl)-1H-pyrazolo[4,3-c]-pyridin-6-yl]-3-[(1S)-2-methoxy-1-phenylethyl]urea] in this work.

An IC50 of 8.5 nM was found for `COCC1CN(c2n[nH]c3cc(NC(=O)N[C@H](C)c4ccccc4)ncc23)C1` [Example 81, 1-{3-[3-(methoxy-methyl)azetidin-1-yl]-1H-pyrazolo[4,3-c]-pyridin-6-yl}-3-[(1R)-1-phenylethyl]-urea] in this work.

An IC50 of 3.7 nM was found for `COCC1CN(c2n[nH]c3cc(NC(=O)N[C@H](COC)c4ccccc4)ncc23)C1` [Example 82, 1-{3-[3-(methoxy-methyl)azetidin-1-yl]-1H-pyrazolo[4,3-c]-pyridin-6-yl}-3-[(1S)-2-methoxy-1-phenylethyl]urea] in this work.

An IC50 of 2.7 nM was found for `C[C@@H](NC(=O)Nc1cc2[nH]nc(N3CC(CO)C3)c2cn1)c1ccccc1` [Example 83, 1-{3-[3-(hydroxyl-methyl)azetidin-1-yl]-1H-pyrazolo[4,3-c]-pyridin-6-yl}-3-[(1R)-1-phenylethyl]-urea] in this work.
